Reference: US20240368565A1, “COMPLEMENTATION-BASED TAGS AND REPORTERS FOR DUAL-MODALITY LABELING” (Promega Corporation, priority 2023, published 2024)
Where “and” joins values, the source holds several entries; their conditions need not be identical. Equal values may be shown once. Peptide text beside a SMILES is read from it. * marks the point of attachment. Biotin = O=C1N[C@H]2[C@H](CS[C@H]2CCCCC(=O)*)N1

Tests used:
[1] = target: HaloTag[22-297](M2F + K140E)-12xGly/Ser-LgBiT-3xGly/Ser-6xHis (Rhodococcus rhodochrous, UniProt P0A3G2, A155T/A167V/A172T/A224E/C128F/C176G/D78G/E257K/H272N/K175M/K195N/L47V/L88M/N227D/S58T/T264A/Y273L/Y87F); assay: biochemical; type: binding; conditions: KD, biotinylated peptide on streptavidin probes, PBST, 25° C.
Sequence of HaloTag[22-297](M2F + K140E)-12xGly/Ser-LgBiT-3xGly/Ser-6xHis (P0A3G2 23-290 with tags or gaps with the stated changes): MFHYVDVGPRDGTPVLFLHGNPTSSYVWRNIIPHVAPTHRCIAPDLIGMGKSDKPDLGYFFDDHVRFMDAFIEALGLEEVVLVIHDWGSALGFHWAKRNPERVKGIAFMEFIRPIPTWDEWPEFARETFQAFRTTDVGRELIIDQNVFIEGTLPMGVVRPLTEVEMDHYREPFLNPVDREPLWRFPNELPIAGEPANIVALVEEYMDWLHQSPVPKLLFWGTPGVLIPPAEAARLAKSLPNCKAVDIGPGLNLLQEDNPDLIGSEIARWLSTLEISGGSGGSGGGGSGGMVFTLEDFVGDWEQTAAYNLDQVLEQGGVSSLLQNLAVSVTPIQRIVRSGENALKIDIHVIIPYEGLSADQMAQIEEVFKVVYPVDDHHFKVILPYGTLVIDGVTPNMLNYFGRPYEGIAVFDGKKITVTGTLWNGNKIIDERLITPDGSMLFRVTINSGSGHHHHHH

[2] = target: HaloTag[22-297](M2F + D53G + V177E)-12xGly/Ser-LgBiT-3xGly/Ser-6xHis (Rhodococcus rhodochrous, UniProt P0A3G2, A155T/A167V/A172T/A224E/C128F/C176G/D73G/D78G/E160K/E257K/H272N/K175M/K195N/L47V/L88M/N227D/S58T/T264A/V197E/Y273L/Y87F); assay: biochemical; type: binding
Sequence of HaloTag[22-297](M2F + D53G + V177E)-12xGly/Ser-LgBiT-3xGly/Ser-6xHis (P0A3G2 23-290 with tags or gaps with the stated changes): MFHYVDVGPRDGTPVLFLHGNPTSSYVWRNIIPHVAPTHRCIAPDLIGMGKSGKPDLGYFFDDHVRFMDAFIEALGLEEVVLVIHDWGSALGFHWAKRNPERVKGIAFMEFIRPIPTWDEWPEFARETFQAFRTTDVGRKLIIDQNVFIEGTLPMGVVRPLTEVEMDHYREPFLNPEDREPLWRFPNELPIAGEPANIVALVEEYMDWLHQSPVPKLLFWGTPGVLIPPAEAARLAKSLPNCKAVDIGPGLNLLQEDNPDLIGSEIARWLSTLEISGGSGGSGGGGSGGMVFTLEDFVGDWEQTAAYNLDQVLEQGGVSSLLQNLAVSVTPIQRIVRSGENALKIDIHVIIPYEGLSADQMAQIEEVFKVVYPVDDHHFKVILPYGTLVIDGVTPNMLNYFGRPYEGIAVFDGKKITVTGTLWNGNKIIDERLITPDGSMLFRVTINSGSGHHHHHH

[3] = target: HaloTag[22-297](M2F + D53G + K140E)-12xGly/Ser-LgBiT-3xGly/Ser-6xHis (Rhodococcus rhodochrous, UniProt P0A3G2, A155T/A167V/A172T/A224E/C128F/C176G/D73G/D78G/E257K/H272N/K175M/K195N/L47V/L88M/N227D/S58T/T264A/Y273L/Y87F); assay: biochemical; type: binding
Sequence of HaloTag[22-297](M2F + D53G + K140E)-12xGly/Ser-LgBiT-3xGly/Ser-6xHis (P0A3G2 23-290 with tags or gaps with the stated changes): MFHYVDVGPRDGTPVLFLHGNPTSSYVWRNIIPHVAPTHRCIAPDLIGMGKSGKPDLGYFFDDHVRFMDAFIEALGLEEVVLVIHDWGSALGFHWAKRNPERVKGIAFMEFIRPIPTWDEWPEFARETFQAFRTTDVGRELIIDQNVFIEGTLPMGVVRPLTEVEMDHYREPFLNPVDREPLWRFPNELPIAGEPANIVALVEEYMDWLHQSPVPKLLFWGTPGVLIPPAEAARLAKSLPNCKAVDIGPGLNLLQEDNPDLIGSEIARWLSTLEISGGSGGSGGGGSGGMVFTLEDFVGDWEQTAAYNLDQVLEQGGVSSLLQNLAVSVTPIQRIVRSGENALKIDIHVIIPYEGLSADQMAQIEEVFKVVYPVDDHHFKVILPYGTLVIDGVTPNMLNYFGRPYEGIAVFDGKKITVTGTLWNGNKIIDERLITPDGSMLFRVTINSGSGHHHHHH

[4] = target: HaloTag[22-297](M2F)-12xGly/Ser-LgBiT-3xGly/Ser-6xHis (Rhodococcus rhodochrous, UniProt P0A3G2, A155T/A167V/A172T/A224E/C128F/C176G/D78G/E160K/E257K/H272N/K175M/K195N/L47V/L88M/N227D/S58T/T264A/Y273L/Y87F); assay: biochemical; type: binding
Sequence of HaloTag[22-297](M2F)-12xGly/Ser-LgBiT-3xGly/Ser-6xHis (P0A3G2 23-290 with tags or gaps with the stated changes): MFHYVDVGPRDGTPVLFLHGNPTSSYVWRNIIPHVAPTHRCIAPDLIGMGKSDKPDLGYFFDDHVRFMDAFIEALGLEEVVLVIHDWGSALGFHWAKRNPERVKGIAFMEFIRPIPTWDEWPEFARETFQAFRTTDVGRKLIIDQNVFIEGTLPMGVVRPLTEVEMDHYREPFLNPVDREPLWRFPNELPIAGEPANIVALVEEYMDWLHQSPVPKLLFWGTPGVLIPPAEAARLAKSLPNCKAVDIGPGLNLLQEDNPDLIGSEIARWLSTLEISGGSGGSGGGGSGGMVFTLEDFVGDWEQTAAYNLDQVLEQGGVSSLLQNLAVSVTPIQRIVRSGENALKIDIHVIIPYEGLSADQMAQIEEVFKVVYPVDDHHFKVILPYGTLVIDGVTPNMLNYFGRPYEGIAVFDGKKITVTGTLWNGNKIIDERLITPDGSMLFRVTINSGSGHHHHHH

[5] = target: HaloTag[22-297](M2F + F148M + V177E)-12xGly/Ser-LgBiT-3xGly/Ser-6xHis (Rhodococcus rhodochrous, UniProt P0A3G2, A155T/A167V/A172T/A224E/C128F/C176G/D78G/E160K/E257K/F168M/H272N/K175M/K195N/L47V/L88M/N227D/S58T/T264A/V197E/Y273L/Y87F); assay: biochemical; type: binding
Sequence of HaloTag[22-297](M2F + F148M + V177E)-12xGly/Ser-LgBiT-3xGly/Ser-6xHis (P0A3G2 23-290 with tags or gaps with the stated changes): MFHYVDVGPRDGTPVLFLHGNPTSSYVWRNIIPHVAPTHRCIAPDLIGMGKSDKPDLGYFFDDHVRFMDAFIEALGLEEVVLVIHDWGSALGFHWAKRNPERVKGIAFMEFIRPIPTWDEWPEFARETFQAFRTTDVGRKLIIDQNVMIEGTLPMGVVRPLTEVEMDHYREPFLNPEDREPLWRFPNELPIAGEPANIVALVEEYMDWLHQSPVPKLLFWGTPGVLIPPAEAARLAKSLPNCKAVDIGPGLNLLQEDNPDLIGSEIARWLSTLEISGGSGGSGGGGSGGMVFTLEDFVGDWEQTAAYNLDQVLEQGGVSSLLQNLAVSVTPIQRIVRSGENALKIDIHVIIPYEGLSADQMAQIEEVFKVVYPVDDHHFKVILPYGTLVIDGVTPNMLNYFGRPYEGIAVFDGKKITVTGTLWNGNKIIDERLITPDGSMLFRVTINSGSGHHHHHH

[6] = target: HaloTag[22-297](M2F)-12×Gly/Ser-LgBiT-6×His (Rhodococcus rhodochrous, UniProt P0A3G2, A155T/A167V/A172T/A224E/C128F/C176G/D78G/E160K/E257K/H272N/K175M/K195N/L47V/L88M/N227D/S58T/T264A/Y273L/Y87F); type: biochemical; conditions: purified reporter, 30 minutes at 4° C., furimazine

| Compound | Kd [1] | Kd [2] | Kd [3] | Kd [4] | Kd [5] | Complementing the reporter to enhance luminescence signal [6] |
| --- | --- | --- | --- | --- | --- | --- |
| CC[C@H](C)[C@H](NC(=O)[C@H](CCCCN)NC(=O)[C@H](CCCCN)NC(=O)[C@H](Cc1ccccc1)NC(=O)[C@H](CC(C)C)NC(=O)[C@H](CCCNC(=N)N)NC(=O)[C@H](Cc1c[nH]c2ccccc12)NC(=O)CNC(=O)[C@H](CO)NC(=O)[C@@H](NC(=O)[C@H](CO)NC(=O)[C@@H](NC(=O)CNC(=O)[C@H](CO)NC(=O)CNC(=O)CNC(=O)CNC(=O)[C@H](CC(C)C)NC(=O)[C@@H](NC(=O)[C@H](CCC(=O)O)NC(=O)[C@@H](NC(=O)[C@H](Cc1ccc(O)cc1)NC(=O)[C@H](Cc1c[nH]cn1)NC(=O)[C@@H]1CCCN1C(=O)[C@H](CC(=O)O)NC(=O)[C@H](Cc1ccccc1)NC(=O)[C@@H]1CCCN1C(=O)[C@H](Cc1ccccc1)NC(=O)CNC(=O)[C@@H](NC(=O)CNC(=O)[C@H](CCCNC(=N)N)NC(=O)[C@H](CCC(=O)O)NC(=O)CCCC[C@@H]1SC[C@@H]2NC(=O)N[C@@H]21)[C@@H](C)O)C(C)C)C(C)C)C(C)C)C(C)C)C(=O)N[C@@H](CO)C(=O)O [HaloTag[3-19](I2R)-4xGly/Ser-VSHiBiT] (Biotin-ERGTGFPFDPHYVEVLGGGSGVSVSGWRLFKKIS-OH) | 684 pM and 466 pM | 669 pM | 576 pM | 1610 pM | 509 pM | – |
| KFNDQWNYRANFLKIRRVSVSGWRLFKKIS [Peptide 1061] | – | – | – | – | – | still functional |
